Reference: PubChem BioAssay (NCI)
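Exposure lasted 48 hours, with cells grown in 96-well plates and compounds tested at five concentrations. GI50 marks 50% less growth. The concentration for full growth arrest is given as TGI.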 *1 amine or outer side, *2 acyl side, *3 side chain or, on linkers, in order; H or OH if unused. Where a SMILES comes first, the peptide text is derived from it. Bridges are numbered along the chain shown (N, C = ends). [ ]: non-standard residue; d: D form. ξ: configuration not given here. X35 = CC[C@H](C)[C@@H](N[*:1])[C@@H](O)CC(=O)O[C@H](C(=O)[C@H](C)C(=O)[*:2])C(C)C; NMeY = CN[C@@H](Cc1ccc(O)cc1)C(=O)O; dNMeL = CN[C@H](CC(C)C)C(=O)O; ξΔPro = O=C(O)C1C=CCN1

Experiments:
Assay in all cases: inhibition of tumour cell growth, NCI panel, 48 h
HOP-92 NSCLC = test system: HOP-92 NSCLC
SK-OV-3 ovarian = test system: SK-OV-3 ovarian
SN12C renal = test system: SN12C renal
OVCAR-5 ovarian = test system: OVCAR-5 ovarian
KM12 colon = test system: KM12 colon
SR leukemia = test system: SR leukemia
NCI-H460 lung = test system: NCI-H460 lung
HL-60(TB) leukemia = test system: HL-60(TB) leukemia
A498 renal = test system: A498 renal
SK-MEL-28 melanoma = test system: SK-MEL-28 melanoma
EKVX NSCLC = test system: EKVX NSCLC
HCC-2998 colon = test system: HCC-2998 colon
NCI-H23 lung = test system: NCI-H23 lung
SF-295 CNS = test system: SF-295 CNS
T-47D breast = test system: T-47D breast
SK-MEL-5 melanoma = test system: SK-MEL-5 melanoma
NCI/ADR-RES ovarian = test system: NCI/ADR-RES ovarian
BT-549 breast = test system: BT-549 breast
M14 melanoma = test system: M14 melanoma
HT29 colon = test system: HT29 colon
SW-620 colon = test system: SW-620 colon
TK-10 renal = test system: TK-10 renal
LOX IMVI melanoma = test system: LOX IMVI melanoma
CCRF-CEM leukemia = test system: CCRF-CEM leukemia
NCI-H522 lung = test system: NCI-H522 lung
IGROV1 ovarian = test system: IGROV1 ovarian
HCT-15 colon = test system: HCT-15 colon
MALME-3M melanoma = test system: MALME-3M melanoma
CAKI-1 renal = test system: CAKI-1 renal
MCF7 breast = test system: MCF7 breast
HCT-116 colon = test system: HCT-116 colon
MDA-MB-231 breast = test system: MDA-MB-231 breast
OVCAR-8 ovarian = test system: OVCAR-8 ovarian
MDA-MB-435 = test system: MDA-MB-435
SF-268 CNS = test system: SF-268 CNS
SNB-19 CNS = test system: SNB-19 CNS
UO-31 renal = test system: UO-31 renal
A549 NSCLC = test system: A549 NSCLC
COLO 205 colon = test system: COLO 205 colon
SNB-75 CNS = test system: SNB-75 CNS
MOLT-4 leukemia = test system: MOLT-4 leukemia
HOP-62 NSCLC = test system: HOP-62 NSCLC
DU-145 prostate = test system: DU-145 prostate
OVCAR-4 ovarian = test system: OVCAR-4 ovarian
PC-3 prostate = test system: PC-3 prostate
MDA-N = test system: MDA-N
RXF 393 renal = test system: RXF 393 renal
U251 CNS = test system: U251 CNS
UACC-257 melanoma = test system: UACC-257 melanoma
K-562 leukemia = test system: K-562 leukemia
ACHN renal = test system: ACHN renal
UACC-62 melanoma = test system: UACC-62 melanoma
HS 578T breast = test system: HS 578T breast
NCI-H226 lung = test system: NCI-H226 lung
786-0 renal = test system: 786-0 renal
SK-MEL-2 melanoma = test system: SK-MEL-2 melanoma
RPMI-8226 leukemia = test system: RPMI-8226 leukemia
OVCAR-3 ovarian = test system: OVCAR-3 ovarian
SF-539 CNS = test system: SF-539 CNS

CC[C@H](C)[C@H]1NC(=O)[C@@H](NC(=O)[C@@H](CC(C)C)N(C)C(=O)C2C=CCN2)[C@@H](C)OC(=O)[C@H](Cc2ccc(OC)cc2)N(C)C(=O)[C@@H]2CCCN2C(=O)[C@H](CC(C)C)NC(=O)[C@@H](C)C(=O)[C@H](C(C)C)OC(=O)C[C@@H]1O (stereo partly specified) (H-[ξΔPro][dNMeL]T[X35]LP[NMeY](Me); ester 3-C)
TGI (HOP-92 NSCLC): 171 nM
TGI (SK-OV-3 ovarian): 183 nM
TGI (SN12C renal): > 50000 nM
TGI (OVCAR-5 ovarian): > 50000 nM
TGI (KM12 colon): 447 nM
TGI (SR leukemia): 2540 nM
TGI (NCI-H460 lung): 114 nM
TGI (HL-60(TB) leukemia): > 50000 nM
TGI (A498 renal): 13.9 nM
TGI (SK-MEL-28 melanoma): < 5 nM
TGI (EKVX NSCLC): 168 nM
TGI (HCC-2998 colon): 48.8 nM
TGI (NCI-H23 lung): 19.8 nM
TGI (SF-295 CNS): 55 nM
TGI (T-47D breast): 136 nM
TGI (SK-MEL-5 melanoma): 75.6 nM
TGI (NCI/ADR-RES ovarian): 520 nM
TGI (BT-549 breast): 345 nM
TGI (M14 melanoma): 111 nM
TGI (HT29 colon): < 5 nM
TGI (SW-620 colon): > 50000 nM
TGI (TK-10 renal): 51.6 nM
TGI (LOX IMVI melanoma): 16.1 nM
TGI (CCRF-CEM leukemia): > 50000 nM
TGI (NCI-H522 lung): < 5 nM
TGI (IGROV1 ovarian): 115 nM
TGI (HCT-15 colon): 1780 nM
TGI (MALME-3M melanoma): 14.6 nM
TGI (CAKI-1 renal): 378 nM
TGI (MCF7 breast): 423 nM
TGI (HCT-116 colon): 5410 nM
TGI (MDA-MB-231 breast): < 46.4 nM
TGI (OVCAR-8 ovarian): 11.8 nM
TGI (MDA-MB-435): 68.7 nM
TGI (SF-268 CNS): 8.02 nM
TGI (SNB-19 CNS): 7.06 nM
TGI (UO-31 renal): 303 nM
TGI (A549 NSCLC): > 50000 nM
TGI (COLO 205 colon): 9320 nM
TGI (SNB-75 CNS): 10.7 nM
TGI (MOLT-4 leukemia): > 50000 nM
TGI (HOP-62 NSCLC): 36.3 nM
TGI (DU-145 prostate): 251 nM
TGI (OVCAR-4 ovarian): < 5 nM
TGI (PC-3 prostate): 1060 nM
TGI (MDA-N): 81 nM
TGI (RXF 393 renal): 28.5 nM
TGI (U251 CNS): 738 nM
TGI (UACC-257 melanoma): 239 nM
TGI (K-562 leukemia): > 50000 nM
TGI (ACHN renal): 61 nM
TGI (UACC-62 melanoma): 6.02 nM
TGI (HS 578T breast): < 5 nM
TGI (NCI-H226 lung): < 5 nM
TGI (786-0 renal): 59.7 nM
TGI (SK-MEL-2 melanoma): 11.5 nM

CC(C(=O)O)c1ccc(-c2ccccc2)c(F)c1 (stereo unspecified)
GI50 (HOP-92 NSCLC): 47600 nM
TGI (HOP-92 NSCLC): > 100000 nM
TGI (SK-OV-3 ovarian): > 100000 nM
TGI (SN12C renal): > 100000 nM
TGI (OVCAR-5 ovarian): > 100000 nM
TGI (KM12 colon): > 100000 nM
TGI (SR leukemia): > 100000 nM
TGI (NCI-H460 lung): > 100000 nM
TGI (HL-60(TB) leukemia): > 100000 nM
TGI (A498 renal): > 100000 nM
TGI (SK-MEL-28 melanoma): > 100000 nM
TGI (EKVX NSCLC): > 100000 nM
TGI (HCC-2998 colon): > 100000 nM
TGI (RPMI-8226 leukemia): > 100000 nM
TGI (OVCAR-3 ovarian): > 100000 nM
TGI (NCI-H23 lung): > 100000 nM
TGI (SF-295 CNS): > 100000 nM
TGI (T-47D breast): > 100000 nM
TGI (SF-539 CNS): > 100000 nM
TGI (SK-MEL-5 melanoma): > 100000 nM
TGI (NCI/ADR-RES ovarian): > 100000 nM
TGI (BT-549 breast): > 100000 nM
TGI (M14 melanoma): > 100000 nM
TGI (HT29 colon): > 100000 nM
TGI (SW-620 colon): > 100000 nM
TGI (TK-10 renal): > 100000 nM
TGI (LOX IMVI melanoma): > 100000 nM
TGI (CCRF-CEM leukemia): > 100000 nM
TGI (NCI-H522 lung): > 100000 nM
TGI (IGROV1 ovarian): > 100000 nM
TGI (HCT-15 colon): > 100000 nM
TGI (MALME-3M melanoma): > 100000 nM
TGI (CAKI-1 renal): > 100000 nM
TGI (MCF7 breast): > 100000 nM
TGI (HCT-116 colon): > 100000 nM
TGI (MDA-MB-231 breast): > 100000 nM
TGI (OVCAR-8 ovarian): > 100000 nM
TGI (MDA-MB-435): > 100000 nM
TGI (SF-268 CNS): > 100000 nM
TGI (SNB-19 CNS): > 100000 nM
TGI (UO-31 renal): > 100000 nM
TGI (A549 NSCLC): > 100000 nM
TGI (COLO 205 colon): > 100000 nM
TGI (SNB-75 CNS): > 100000 nM
TGI (MOLT-4 leukemia): > 100000 nM
TGI (HOP-62 NSCLC): > 100000 nM
TGI (DU-145 prostate): > 100000 nM
TGI (OVCAR-4 ovarian): > 100000 nM
TGI (PC-3 prostate): > 100000 nM
TGI (MDA-N): > 100000 nM
TGI (RXF 393 renal): > 100000 nM
TGI (U251 CNS): > 100000 nM
TGI (UACC-257 melanoma): > 100000 nM
TGI (K-562 leukemia): > 100000 nM
TGI (ACHN renal): > 100000 nM
TGI (UACC-62 melanoma): > 100000 nM
TGI (HS 578T breast): > 100000 nM
TGI (NCI-H226 lung): > 100000 nM
TGI (786-0 renal): > 100000 nM
TGI (SK-MEL-2 melanoma): > 100000 nM
